# Several values for one entry are separate records, joined by “and”; a condition that tells them apart may be missing. Identical values can stand only once. Entries after “also recorded” stand apart in the source; their conditions may differ.
# Tests used:
# [1] = literature comparison; cited from earlier work
# [2] = tested on: HSV-1; assay: HSV-1 rabbit retinitis treatment study; format: in vivo; conditions: intravitreal drug after induction of retinitis; for thickness of the retina (histology): 5% dextrose eyes 46 μm, P<0.05
# Description: (§1) For the pharmacokinetic studies, the highest non toxic dose from the results of the toxicity studies, 100 μg/eye, was intravitreally injected into 24 eyes of 16 rabbits, and the remaining 8 eyes were injected with the same volume of 5% dextrose as control. Two animals, 3 eyes with drug and 1 eye with 5% dextrose, were used at each time point. The time points used were post-injections on day 1, day 3, week 1, week 2, week 3, week 5, week 8, and week 10. After animal sacrifice, globes were enucleated and kept on ice before freezing and dissecting. The globes were then submerged in −40 C.° 2-methylbutane in a beaker sitting in a dry ice ethanol bath for 30 seconds. The frozen globe was cut into two halves through the optic nerve and further dissected under a surgical microscope to separate the vitreous and retina. These different tissues from the same eyes were separately stored in the pre-weighed and pre-labeled glass vials. The vials were kept in −70 C for HPLC analysis. 3. HSV-1 rabbit retinitis treatment study of HDP-cCDV: For the retinitis intervention study, 72 rabbits were used, including 14 rabbits for the treatment study and 58 for the pretreatment study. Only the right eye of each rabbit was used. Ophthalmoscopic retinitis grading was performed using a previously reported method with a standardized grading scheme.^7 For the treatment study, the right eyes of 14 rabbits were intravitreally injected with 0.06 mL of a 5×10^−5 dilution of 10^−7.6 mean tissue culture infective dose (TCID 50)/mL HSV-1. When retinitis developed and reached grade 1 (earliest detected retinitis grade: 1 or 2), 5 infected eyes received 100 micrograms of HDP-cCDV in 0.1 mL 5% dextrose, 4 infected eyes received an equivalent dose of free CDV, and the other 5 infected eyes received 5% dextrose. For the pretreatment study, 100 μg/eye was tested. 58 rabbits were divided into four groups: the 21 day, 42 day, 68 day, and 98 day groups. 15 rabbits were used for each time point of the pretreatment study (except 13 rabbits were used for the 98 day time point). At each time point 5 rabbits received 100 micrograms (in 0.1 ml 5% dextrose) of HDP-cCDV, 5 rabbits received an equivalent dose of CDV, and 5 rabbits received 5% dextrose (for the 98 day pre-treatment only 3 rabbits were used for HDP-cCDV). The HSV-1 virus dose, injection method, and clinical retinitis grading were done as previously described.^2,7 Rabbits were killed 2 weeks after development of retinitis. Retinitis was graded on day 3, 5, 7, 9, 11, 14. Rabbits without retinitis 3 or 4 weeks after HSV-1 inoculation were sacrificed.
# 4. Histologic evaluation of retinal damage and choroidal inflammation for the rabbit eyes in the treatment group. […] Thickness was measured with a reticule installed in the eyepiece of the microscope. […]
# [3] = tested on: HSV-1; assay: HSV-1 rabbit retinitis pretreatment study; format: in vivo; conditions: for rabbits that developed retinitis: 3-week pretreatment, 100 μg/eye or equivalent dose
# Description: as §1
# For the 3-week pretreatment study, all five rabbits that received intravitreal injection of 5% dextrose developed typical retinitis. In contrast, none of the rabbits that received the intravitreal injection of HDP-cCDV or CDV developed retinitis (Table 1). For the 47-day pretreatment, at day 7 after virus inoculation all control eyes developed retinitis with a median grade of 4. […] In contrast, out of 5 rabbits that received HDP-cCDV pretreatment, only 2 developed grade 2 retinitis. There is a significant difference in retinitis scores between HDP-cCDV pretreated eyes and CDV pretreated eyes or control eyes (p<0.05, Nonparametric Tukey-type tests). […] The other two groups (10 eyes) with dextrose or CDV pretreatment all had grade 4 retinitis. The difference in retinitis scores among the three groups was very significant (P=0.0046, Kruskal-Wallis Tests) (Table 1). For the 100-day pretreatment study, one of four rabbits in the HDP-cCDV pretreated group died before virus inoculation. […] The HDP-cCDV pretreated group had lower retinitis scores than the retinitis scores in the dextrose pretreated group (P<0.05, Nonparametric Tukey-type tests).
# [4] = HDP-P-Ara G intravitreal toxicity
# [5] = tested on: laser induced rat CNV; assay: Prophylactic treatment of laser induced rat CNV (fluorescein angiograph); format: in vivo
# Description: The retina was normal elsewhere.
# Ara-G has been used as an antiproliferative agent to treat human leukemia and lymphoma.^11,12 Ara-G can cause apoptosis of fast growing cells by incorporating into the cell's DNA to inhibit the proliferation.^13 Normal cells in the retina are differentiated cell populations and are not sensitive to Ara-G. In contrast, abnormal proliferating cells in proliferative vitreoretinopathy experience vigorous DNA synthesis and are sensitive to Ara-G. The lipid prodrug of Ara-G was chosen to be useful to treat proliferative vitreoretinopathy or other intraocular proliferating disorders. […] No intraocular drug toxicity was observed except for the local retina contact induced retinal toxicity from the high dose injections. It was hypothesized that the local retinal toxicity could be eliminated by using small crystalline particles, especially when used in a human eye with a much larger vitreous volume than rabbit (4 ml in human eye versus 1.4 ml in rabbit eye). To quickly gather the therapeutic data of this new compound on proliferation, 3 μg of HDP-P-Ara G (equivalent to 75 μg in the rabbit eye [(25+125)/2]) was injected into the right eye of each rat 3 days before induction of CNV by laser. The drug led to a 39% reduction of leaking laser burns in this CNV rat model (39% versus 66%, p=0.009). […] HDP-P-Ara G could be useful for prevention or treatment of the devastating sight-threatening eye disease, age related macular degeneration.
# [6] = Intravitreal toxicity of HDP-cCDV; format: in vivo, rabbit
# Description: All procedures were adherent to the ARVO Statement for the Use of Animals in Ophthalmic and Vision Research Intravitreal pharmacokinetics of small particle formulation of HDP-P-GCV: Three rabbits received 8.85 μmoles of the drug in their right eyes and 2.8 μmoles in the left eye. 2.8 μmole was previously determined to be non toxic.^2 Vitreous sampling was performed on both eyes of each rabbit at post injection week 1, week 2, week 3, week 5, week 8, week 12, and week 15. 50 to 100 μl of vitreous fluid was aspirated and placed in a pre-weighed vial for HPLC analysis of HDP-P-GCV levels as described before. 2. Intravitreal toxicity and pharmacokinetics of HDP-cCDV: For toxicity studies, five doses (10 μg or 0.018 μmole, 55 μg or 0.1 μmole, 100 μg or 0.18 μmole, 550 μg or 1.01 μmole, 1000 μg or 1.84 μmole in 50 μl of 5% dextrose) were tested in 8 rabbits, 16 eyes for 8 weeks. One eye of each animal was injected with drug and the fellow eye was injected with 5% dextrose as the control. Before drug injection, baseline IOP and fundus examination were documented. Drug or 5% dextrose was intravitreally injected into vitreous cavity as previously described.^2 After injection, eyes were monitored with a hand held tonometer (Tonopen, Medtronic, Jacksonville, Fla.), slit-lamp, and indirect ophthalmoscope at day 3, week 1, week 2, week 3, week 5, and week 8. […]
# [7] = rabbit, in vivo, 100 ug
# Description: For the pharmacokinetic studies, the highest non toxic dose from the results of the toxicity studies, 100 μg/eye, was intravitreally injected into 24 eyes of 16 rabbits, and the remaining 8 eyes were injected with the same volume of 5% dextrose as control. Two animals, 3 eyes with drug and 1 eye with 5% dextrose, were used at each time point. The time points used were post-injections on day 1, day 3, week 1, week 2, week 3, week 5, week 8, and week 10. After animal sacrifice, globes were enucleated and kept on ice before freezing and dissecting. The globes were then submerged in −40 C.° 2-methylbutane in a beaker sitting in a dry ice ethanol bath for 30 seconds. The frozen globe was cut into two halves through the optic nerve and further dissected under a surgical microscope to separate the vitreous and retina. These different tissues from the same eyes were separately stored in the pre-weighed and pre-labeled glass vials. The vials were kept in −70 C for HPLC analysis. 3. […] When retinitis developed and reached grade 1 (earliest detected retinitis grade: 1 or 2), 5 infected eyes received 100 micrograms of HDP-cCDV in 0.1 mL 5% dextrose, 4 infected eyes received an equivalent dose of free CDV, and the other 5 infected eyes received 5% dextrose. […]
# [8] = Laser light scattering particle size analysis; format: physicochemical; conditions: dry powder, laser diffraction
# Description: Unmodified HDP-P-GCV and microfluidized HDP-P-GCV were subjected to laser light scattering particle size analysis at Cirrus Pharmaceuticals, Inc., Durham, N.C. Measurements were performed using a HELOS laser diffraction instrument (Sympatec, Lawrenceville, N.J.), equipped with a R3 lens (0.5 to 175 microns).
# For each measurement, approximately 100 mg of dry sample was dispersed at a feed rate of 75% using the VIBRI and RODOS attachments set at a main pressure of 4.0 bar and aventury pressure of 100 mbar. The triggering conditions were set to start measurement when channel 25 e 1% and stop when channel 25 d 0.5%. Data were analyzed using the Fraunhoffer method by mean of the WINDOX 3.2 release 4 software. HDP-cCDV: cCDV was prepared from CDV as described previously^3 except that the compound was isolated as the dicyclohexyl-morpholinocarboxamidine salt. The scheme of the synthesis is illustrated in FIG. 1. The purity (greater than 98%) of these compounds used in this study was confirmed by thin layer chromatography, nuclear magnetic resonance spectroscopy, and mass spectroscopy as reported previously.^4,5
# An aqueous slurry of HDP-P-GCV was subjected to five consecutive cycles of microfluidization. […] Finally, an untreated formulation of HDP-cCDV powder (Panel C) was also analyzed.
# [9] = tested on: HSV-1; conditions: single intravitreal injection; cited from earlier work
# [10] = previously determined; cited from earlier work
# [11] = 47-day pretreatment, day 7 after virus inoculation
# [12] = 68-day pretreatment, day 14 following virus inoculation
structure (smiles),measurement,setting,value
"Nc1ccn(C[C@@H](CO)OCP(=O)(O)O)c(=O)n1 [CDV, cidofovir, reference compound]",vitreous half-life,[1],20 h
same,vitreous cloudiness,[2],noticeably less severe than the control eyes
same,thickness of the retina (histology),[2],95 μm
same,rabbits that developed retinitis,[3],none
same,median retinitis grade,[3]; [11],3
same,rabbits that developed retinitis (out of 5),[3]; [11],all developed retinitis
same,retinitis grade,[3]; [12],4
"CCCCCCCCCCCCCCCCOCCCOP(=O)(O)OCC1OC(n2cnc3c(=O)[nH]c(N)nc32)C(O)C1O (stereo not shown) [HDP-P-Ara G, 1-O-hexadecyloxypropyl-phospho-arabinofuranosylguanosine]",pathology study,[4]; 25 μg intravitreal injections,no toxicity
same,pathology study,[4]; 125 μg intravitreal injections,localized retinal structural disturbance and proliferation or hypertrophy of retinal pigment epithelium
same,ERGs,[4]; all eyes including the ones with local retinal toxicity,normal
same,clinical toxicity observation,"[4]; high dose (125 μg/eye), where drug depot touched the retina",local retinal toxicity that presented as a local retinal disturbance of fundus pigmentation; also recorded: local retinal depigmentation area
same,time drug depot was observable,[4]; low dose (25 μg/eye),2 weeks
same,retinal toxicity in the rat eyes,[5]; 3 μg intravitreal,did not cause any retinal toxicity
same,reduction of CNV formation (leaking laser burns),"[5]; 3 μg intravitreal 3 days before laser, versus control eyes",39%
same,burns actively leaking in treated eyes,"[5]; 3 μg intravitreal 3 days before laser, control eyes 66%, p=0.009",40% and 39%
"CCCCCCCCCCCCCCCCOCCCOP1(=O)COC(Cn2ccc(N)nc2=O)CO1 (stereo not shown) [HDP-cCDV, 1-O-hexadecyloxypropyl-cyclic-cidofovir]",toxicity findings,"[6]; 550 μg/eye and 1000 μg doses, one eye each",local cataract and mild iritis in two eyes
same,highest non-toxic dose,"[6]; intravitreal injection, 8 weeks observation",100 μg/eye
same,vitreous cloudiness,[2],noticeably less severe than the control eyes
same,thickness of the retina (histology),[2],80 μm
same,rabbits that developed retinitis,[3],none
same,rabbits that developed retinitis (out of 5),[3]; [11],2
same,retinitis grade of the rabbits that developed retinitis,[3]; [11],2
same,retinitis outcome,[3]; [12],"only two rabbits developed grade 3 and grade 4 retinitis, the other three rabbits had complete protection"
same,retinitis outcome,"[3]; 100-day pretreatment, three rabbits, day 9","one did not develop retinitis, and the other two had grade 3 retinitis"
same,duration of pharmacologic effect against HSV-1 infection of the rabbit retina,[3]; single intravitreal pretreatment 100 μg/eye,at least 100 days
same,estimated vitreous half-life,[7],151 h
same,volume median diameter (×50),[8],8.9 microns
"CCCCCCCCCCCCCCCCOCCCOP(=O)(O)OCC(CO)OCn1cnc2c(=O)[nH]c(N)nc21 (stereo not shown) [HDP-P-GCV, Hexadecylpropanediol-3-phospho-ganciclovir]",duration of prevention of HSV-1 viral infection of retina,[9],20 weeks
same,non toxic intravitreal dose,[10],2.8 µmol
"Nc1ccn(C[C@H]2COP(=O)(O)CO2)c(=O)n1 [cCDV, cyclic cidofovir]",vitreous half-life,[1],10 h
"Nc1nc(O)c2ncn(COC(CO)CO)c2n1 [GCV, ganciclovir, reference compound]",duration of prevention of HSV-1 viral infection of retina,[9],less than one-week protection
